IC50 data for 17 compounds are collected here from ChEMBL document CHEMBL1133994, “Design and synthesis of sialyl Lewis x mimics as E-selectin inhibitors” (Bioorg Med Chem Lett, 2001).

Assay [1] has as its target T1, E-selectin (Homo sapiens, UniProt P16581).
T1 sequence (P16581 whole entry): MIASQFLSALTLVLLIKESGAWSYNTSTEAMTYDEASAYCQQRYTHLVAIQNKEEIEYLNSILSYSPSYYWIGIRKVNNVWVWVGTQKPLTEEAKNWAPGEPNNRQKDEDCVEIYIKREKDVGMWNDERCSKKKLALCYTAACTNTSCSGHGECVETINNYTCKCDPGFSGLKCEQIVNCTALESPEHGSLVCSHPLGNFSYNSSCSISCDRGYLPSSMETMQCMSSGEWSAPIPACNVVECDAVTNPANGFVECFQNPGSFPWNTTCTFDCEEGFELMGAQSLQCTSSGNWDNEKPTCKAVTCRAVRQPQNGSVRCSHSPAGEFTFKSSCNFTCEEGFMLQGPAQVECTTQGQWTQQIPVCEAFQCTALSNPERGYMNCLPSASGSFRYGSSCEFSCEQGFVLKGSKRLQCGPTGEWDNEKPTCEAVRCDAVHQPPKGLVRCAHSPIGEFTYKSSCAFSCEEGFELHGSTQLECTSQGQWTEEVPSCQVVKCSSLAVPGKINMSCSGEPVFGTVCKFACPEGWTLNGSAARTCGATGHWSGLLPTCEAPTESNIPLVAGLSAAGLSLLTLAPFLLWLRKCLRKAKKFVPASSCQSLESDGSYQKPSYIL
The experiment in a line: In vitro inhibitory activity against Selectin E binding to human recombinant AGP (alpha-1 acid glycoprotein).

Assay [2] deals with T1, E-selectin. The experiment in a line: In vitro inhibitory activity against binding of Selectin E to human recombinant AGP (alpha-1 acid glycoprotein) at a concentration of 10 mM; NA- Not active.

On to `O=C(O)CC[C@H](NC(=O)CC1OC(CO)C(O)C(O)C1O)C(=O)O` (some centres not stated), for which the IC50 at E-selectin [1] amounted to 3 mM. For the compound `Cc1cccc(N2CCN(CC3OC(CC(=O)N[C@@H](CCC(=O)O)C(=O)O)C(O)C(O)C3O)CC2)c1C` (some centres not stated), on E-selectin [2], the concentration for half-maximal inhibition (IC50) result is “Not Active”. `C[C@@H](Cc1ccccc1)N(C)CC1OC(CC(=O)N[C@@H](CCC(=O)O)C(=O)O)C(O)C(O)C1O` (some centres not stated): the IC50 entry on E-selectin [2] was “Not Active”. Take `NC(=O)[C@H](Cc1ccccc1)NCC1OC(CC(=O)N[C@@H](CCC(=O)O)C(=O)O)C(O)C(O)C1O` (some centres not stated): the IC50 on E-selectin [1] came out at 6.7 mM. The same measure, in the same setting: under `O=C(O)CC[C@@H](NC(=O)CC1OC(CO)C(O)C(O)C1O)C(=O)O` (some centres not stated) stands 7 mM. As to `O=C(O)CC[C@H](NC(=O)CC1OC(CN2CCC(O)(Cc3ccccc3)CC2)C(O)C(O)C1O)C(=O)O` (some centres not stated), the concentration for half-maximal inhibition (IC50) at E-selectin [1] was 1.6 mM. Consider `O=C(O)CCCc1ccc(NC(=O)CC2OC(CO)C(O)C(O)C2O)cc1` (configuration not stated), for which the IC50 at E-selectin [1] was greater than 10 mM. On to `NC(=O)CC1OC(CO)C(O)C(O)C1O` (configuration not stated), for which the IC50 result at E-selectin [2] was “Not Active”. With `O=C(O)CC[C@H](NC(=O)CC1OC(CNc2cc(C(=O)O)cc(C(=O)O)c2)C(O)C(O)C1O)C(=O)O` (some centres not stated), the half-maximal inhibitory concentration (IC50) on E-selectin [1] was 6 mM.

With `NC(=O)CC[C@@H](NC(=O)CC1OC(CO)C(O)C(O)C1O)C(=O)O` (some centres not stated), on E-selectin [1], the 50% inhibitory concentration (IC50) is greater than 10 mM. `O=C(O)C(NCCC1OC(CO)C(O)C(O)C1O)c1cc2ccccc2[nH]1` (configuration not stated): the IC50 entry on E-selectin [2] is on record as “Not Active”. As for `O=C(O)c1cc(NCCC2OC(CO)C(O)C(O)C2O)cc(C(=O)O)c1` (configuration not stated), the half-inhibitory concentration (IC50) result at E-selectin [2] is “Not Active”. As to `CC1CCCC(N(C)CC2OC(CC(=O)N[C@@H](CCC(=O)O)C(=O)O)C(O)C(O)C2O)C1` (some centres not stated), the 50% inhibitory concentration (IC50) on E-selectin [1] was 8 mM. The same measure, in the same setting: under `O=C(O)C[C@@H](NC(=O)CC1OC(CO)C(O)C(O)C1O)C(=O)O` (some centres not stated) stands 6 mM. `NC(=O)[C@H]1CCCN1CC1OC(CC(=O)N[C@@H](CCC(=O)O)C(=O)O)C(O)C(O)C1O` (some centres not stated): the IC50 result on E-selectin [2] is recorded as “Not Active”.

Consider `O=C(O)CCc1ccc(NC(=O)CC2OC(CO)C(O)C(O)C2O)cc1` (configuration not stated), for which the half-maximal inhibitory concentration (IC50) on E-selectin [1] was 10 mM. `NCCCC[C@@H](NC(=O)CC1OC(CO)C(O)C(O)C1O)C(=O)O` (some centres not stated): the 50% inhibitory concentration (IC50) at E-selectin [1] came to 7 mM.

The term IC50 denotes the concentration that gives 50% inhibition.
